Here are results for two compounds from publication PMC4049535 (Nature communications, 2013).

Assay [1] concerns the target T1, Antigen 85C (Ag85C) (Mycobacterium tuberculosis, UniProt P9WQN9). The assay can be described thus: resorufin butyrate fluorometric assay dose-dependence. The class given is biochemical.
In assay [2] the target is T1, Antigen 85C (Ag85C). Description: peptide mass fingerprinting of tryptic peptides. Format: biochemical.

T1 sequence (P9WQN9 46-340): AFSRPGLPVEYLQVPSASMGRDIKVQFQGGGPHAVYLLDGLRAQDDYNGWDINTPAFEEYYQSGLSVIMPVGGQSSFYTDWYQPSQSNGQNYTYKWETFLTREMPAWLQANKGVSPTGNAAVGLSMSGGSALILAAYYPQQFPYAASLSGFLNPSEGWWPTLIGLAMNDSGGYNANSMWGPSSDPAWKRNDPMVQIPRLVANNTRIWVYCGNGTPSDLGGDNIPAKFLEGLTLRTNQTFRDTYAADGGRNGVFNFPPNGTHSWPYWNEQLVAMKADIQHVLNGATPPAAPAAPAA

Consider `O=c1c2ccccc2[se]n1-c1ccccc1` [EBS, ebselen], for which the Ki on Antigen 85C (Ag85C) [1] is 63 nM.
Take `NC(=O)CI` [IAA, iodoacetamide]: the “peptide mass fingerprinting of tryptic peptides (MALDI-MS); activity loss in res” value at Antigen 85C (Ag85C) [2] came to 51.2 mM.
